This is an account of results in PMC10845205, “Discovery of novel antibacterial agent for the infected wound treatment: all-hydrocarbon stapling optimization of LL-37” (Theranostics, 2024).

Values after ≈ are worked out from the molar mass of the structure shown. Positions of bridges follow the written chain, without caps; N, C: chain ends. Non-standard residues stand in square brackets, D forms with d. Residues, ends and D or L forms follow the SMILES beside them. S5 = C=CCCC[C@](C)(N)C(=O)O

Series [1] concerns A. baumannii. Conditions: CLSI broth microdilution, MH-II broth, 24 h 37 °C, AlamarBlue; ATCC 19606; 3 independent measurements. Here is the method: (§1) According to the protocol of Clinical & Laboratory Standards Institute, the minimum inhibitory concentration (MIC) of the linear and stapled peptides against a panel of gram-positive and gram-negative bacteria was determined by the broth microdilution method. […]
(§2) Bacterial strains and culture
(§3) Bacterial type stains ATCC 25923 S. aureus, ATCC 12228 S. epidermidis, ATCC […]
(§4) aeruginosa and ATCC 13883 K. pneumoniae were obtained from Shanghai Bioresource Collection Center. The bacterial culture medium was purchased from Oxoid and autoclaved according to the instructions from manufacturer. The isolated strains were cultured in Mueller Hinton II broth and continuously shaken at 140 rpm for 18 hours to the middle of the exponential growth phase at 37 °C with an OD value of 0.4-0.5.
(§5) Bacterial suspensions with an OD value of 0.1, approximately […], were then diluted for further assays.
(§6) The minimal inhibition concentration (MIC) of the linear and stapled peptides was determined using the microbroth dilution method from the Clinical and Laboratory Standards Institute (CLSI)[2, 3]. Bacterial suspensions of 10 6 CFU/mL were prepared in MH-II broth and peptide solutions at varying concentrations were prepared in phosphate buffer saline (PBS). Then 50 μL peptide solution and 50 μL bacterial suspension were mixed in a 96 -well plate. Plates were incubated for 24 hours at 37 °C.
(§7) 10 μL AlamarBlue cell viability reagent (ThermoFisher Scientific, UK) was added to each well, then the plate was re -incubated for a further 2 hours at 37 °C. The MIC was recorded as the minimum concentration of peptides required to completely in hibit bacteria growth. For serum stability assessment, the peptide solutions were pre - incubated with 50% human serum for 4 h before the MIC determination. Experiments were performed in 3 independent measurements. […]

The test system of series [2] is E. coli. The following applies: CLSI broth microdilution, MH-II broth, 24 h 37 °C, AlamarBlue; ATCC 25922; 3 independent measurements. The method, then: as §1, §2, §3, §4, §5, §6, §7
On the technique in general: In broth dilution the organism is exposed to a series of concentrations in liquid medium.

Series [3] concerns E. faecalis. The following applies: CLSI broth microdilution, MH-II broth, 24 h 37 °C, AlamarBlue; ATCC 29212; 3 independent measurements. Here is the method: as §1, §2, §3, §4, §5, §6, §7
In series [4] the test system is K. pneumoniae. The following applies: CLSI broth microdilution, MH-II broth, 24 h 37 °C, AlamarBlue; ATCC 13883; 3 independent measurements. Here is the method:
as §1, §2, §3, §4, §5, §6, §7

In series [5] the test system is P. aeruginosa. The following applies: CLSI broth microdilution, MH-II broth, 24 h 37 °C, AlamarBlue; ATCC 27853; 3 independent measurements. The method, then: as §1, §2, §3, §4, §5, §6, §7
Series [6] concerns S. aureus. Conditions: CLSI broth microdilution, MH-II broth, 10^6 CFU/mL, 24 h 37 °C, AlamarBlue; ATCC 25923; 3 independent measurements. The method, then: as §1, §2, §3, §4, §5, §6, §7
The subject of series [7] is S. epidermidis. The following applies: CLSI broth microdilution, MH-II broth, 24 h 37 °C, AlamarBlue; ATCC 12228; 3 independent measurements. The method, then:
as §1, §2, §3, §4, §5, §6, §7

Series [8] can be described thus: Hydrophobicity by RP-HPLC retention time. In kind it is physicochemical. Conditions: chromatographic, reverse-phase C18 column, CH3CN/H2O containing 0.1%TFA from 10% to 90% over 20 min, UV 220 nm. The source says:
To uncover the structure-activity relationship of KR-12 and its stapled derivatives, their physicochemical properties in terms of hydrophobicity, net charge and α-helicity were investigated (Table 2).

Series [9] is described as follows: α-helicity by circular dichroism. In kind it is physicochemical. Conditions: CD, aqueous solution containing 50% trifluoroethanol, from [θ]222, 25 °C. Here is the method: cm2 ∙ dmol−1) after subtracting the background using the following equation:
[θ]=(θ×1000)/( c ×l ×n ), among which, θ is the ellipticity recorded (mdeg), c is the concentration of peptide (M), l is the quartz cuvette’s optical path length (cm), and n is the amino acid number of the peptide. The helicity of peptides was calculated using the following equation: α = [θ]222/[θ]max ×100%, where [θ]222 is the mean residue ellipticity of the peptide at 222 nm; [ θ]max = (−44,000 +250T) (1−k/n), k = 4, n is the number of amino acids, T = 25 °C.
as §2, §3
aeruginosa and ATCC 13883 K. pneumoniae were obtained from Shanghai Bioresource Collection Center. The bacterial culture medium was purchased from Oxoid and autoclaved according to the instructions from manufacturer. […]
The minimal inhibition concentration (MIC) of the linear and stapled peptides was determined using the microbroth dilution method from the Clinical and Laboratory Standards Institute (CLSI)[2, 3]. […]
10 μL AlamarBlue cell viability reagent (ThermoFisher Scientific, UK) was added to each well, then the plate was re -incubated for a further 2 hours at 37 °C. The MIC was recorded as the minimum concentration of peptides required to completely in hibit bacteria growth. […]
On the technique in general: Circular dichroism is widely used to follow secondary structure.

A short description of series [10]: Serum stability assay. It counts as in vitro ADME, human. The following applies: human serum, 2 mg/mL peptide in pH 7.4 PBS mixed with serum 1:4, 37 °C, up to 48 h, RP-HPLC UV 220 nm, 3 independent measurements. The source says: Maintaining high stability and presenting high compatibility in the complex physiological environment are important criterions for the clinical translation of AMPs. […] The derivatives were mixed with human serum in pH 7.4 PBS, simulating the degradation process of peptides by proteases in vivo. The percentages of intact derivatives were monitored and determined with time according to the PR-HPLC. […]
Serum stability of the linear and stapled peptides was examined by RP -HPLC as previously described. 2 mg/mL peptide solution was prepared in pH 7.4 PBS and incubated with human serum (Gemini, USA) to the final volume ratio of 1:4 at 37 °C.
At various time intervals, 50 μL mixture was added to 50 μL ethanol to terminate the enzymatic hydrolysis. After centrifugation at 10,000 rpm for 10 minutes under 4 °C, […]
the supernatant was collected and analyzed by RP-HPLC, with a UV detector monitored at 220 nm. Record the peak area of the intact peptide and calculate the percentage of remaining peptide based on the integrated area as, Peptide remaining (%) = peak area of remaining peptide/peak area of intact peptide×100%. […]

Regarding `CC[C@H](C)[C@H](NC(=O)[C@H](CCCNC(=N)N)NC(=O)[C@H](CCCCN)NC(C)=O)C(=O)N[C@H](C(=O)N[C@@H](CCC(N)=O)C(=O)N[C@@H](CCCNC(=N)N)C(=O)N[C@H](C(=O)N[C@@]1(C)CCCC=CCCC[C@@](C)(C(N)=O)NC(=O)[C@H](CC(C)C)NC(=O)[C@H](Cc2ccccc2)NC(=O)[C@H](CC(=O)O)NC1=O)[C@@H](C)CC)C(C)C` [KR-12 (K8, R12)] (Ac-KRIVQRI[S5]DFL[S5]-NH2; staple 8-12), the “MIC A. baumannii” value in series [1] turned out to be 16 µg/mL (≈ 10.1 µM). Further, the “MIC E. coli” value in series [2] came out at 64 µg/mL (≈ 40.5 µM). Moreover, the “MIC E. faecalis” value in series [3] came to 16 µg/mL (≈ 10.1 µM). Further, the “MIC K. pneumoniae” value in series [4] was over 256 µg/mL. The “MIC P. aeruginosa” value in series [5] came out at 256 µg/mL (≈ 162 µM). Also, the “MIC S. aureus” value in series [6] came out at 16 µg/mL (≈ 10.1 µM). In addition, the “MIC S. epidermidis” value in series [7] came to 16 µg/mL (≈ 10.1 µM). Further, in series [8], the “TR (retention time, measure of hydrophobicity)” value was determined as 18.2 min. The compound also had a α-helicity in series [9] of 50.0 ± 0.6%. The “TD50 (time at which 50% of the peptide is degraded in the presence of serum)” value in [10] is 18.28 h.
